Patent US20250186510A1, “BACTERIAL COMPOSITION FOR USE IN TREATMENT OF SUBSTANCE USE DISORDER” (Bar-Ilan University, priority 2022, published 2025)
Entries after “also recorded” stand apart in the source; their conditions may differ.

Columns and labels:
[1] = system: cocaine-seeking behavior of rats; details: cited from earlier work
[2] = system: gut microbiota in feces of naïve rats; test: Incubation of feces with cocaine and DHEA in vitro (16S rRNA sequencing, UniFrac, LEfSe)
Description: Bacterial taxa differences in fecal samples were analyzed using the Linear discriminant analysis effect size (LEfSe) method as a response for either cocaine or DHEA (0, 50, 100 and 500 μM). Stool of naïve rats was collected into 15 ml test tubes and stored under anaerobic conditions. The stool was homogenized using a vortex and mechanical stirring. After completion of the preparation, the fecal slurry was incubated at 37° C. under anaerobic conditions. Following a week of anaerobic incubation, DNA was extracted from the slurry, and 16S rRNA gene sequencing was performed (protocols described above).

[3] = system: gut microbiota of cocaine-trained rats; test: Gut microbiota composition (16S rRNA sequencing, UniFrac, ANCOM) after DHEA during extinction
[4] = system: cocaine-seeking behavior of cocaine-trained rats; test: Extinction training after cocaine self-administration, daily DHEA; details: DHEA 2 mg/kg IP daily, days 13-22, vs Coc-Vehicle
[5] = system: gut microbial community of cocaine-trained rats; test: Gut microbiota throughout cocaine self-administration (beta diversity); details: day 3 vs day 12, p=0.001

Q: For `C[C@]12CC[C@H](O)CC1=CC[C@@H]1[C@@H]2CC[C@]2(C)C(=O)CC[C@@H]12` [DHEA, dehydroepiandrosterone], which “cocaine seeking behavior relative to maintenance levels” value ([1]; chronic exogenous DHEA 2 mg/kg, previous work) is on record?
A: < 20%

Q: And the “cocaine-seeking behavior, self-administration model” value ([1]; pretreatment with DHEA, background)?
A: attenuated cocaine-seeking behavior

Q: What about the “changes in bacterial features (LEfSe)” value ([2]; DHEA 50 μM) of the same compound?
A: no significant changes

Q: And the “changes in bacterial features (LEfSe)” value ([2]; DHEA 100 μM)?
A: no significant changes

Q: And the “gut microbiota composition (weighted UniFrac distances) in vitro” value ([2]; DHEA 100 μM vs PBS, p=0.036)?
A: significant change

Q: What about the “R. gnavus among overrepresented bacterial features” value ([2]; DHEA 500 μM) of the same compound?
A: none of them belonged to R. gnavus; also recorded: not R. gnavus

Q: What about the “number of overrepresented bacterial features (LEfSe)” value (“number” for short) ([2]; DHEA 500 μM vs PBS) of the same compound?
A: 16

Q: What about the “gut microbiota composition (weighted UniFrac distances) in vitro” value ([2]; DHEA 500 μM vs PBS, p=0.02) of the same compound?
A: significant change

Q: And the “gut microbiota beta diversity (PCoA of unweighted UniFrac distances)” value ([3]; day 22, coc-DHEA compared with saline-vehicle)?
A: resembled those of rats that received vehicle; also recorded: induces a microbiota more similar to the saline control

Q: What about the “relative abundance of R. gnavus (ANCOM)” value ([3]; day 22, coc-DHEA vs cocaine-vehicle) of the same compound?
A: increase in the relative abundance of R. gnavus; also recorded: Levels of R. gnavus rose

Q: What about the “cocaine-seeking behavior (active lever presses) during extinction” value [4] of the same compound?
A: significantly reduced cocaine-seeking behavior

Q: With `COC(=O)[C@H]1[C@@H](OC(=O)c2ccccc2)C[C@@H]2CC[C@H]1N2C` [Cocaine, benzoylmethylecgonine] as the compound, how does the “gut microbial community (beta diversity) over cocaine self-administration” value [5] read?
A: significant change

Q: And the “number” value ([2]; cocaine 100 μM vs PBS)?
A: 12

Q: And the “gut microbiota beta diversity (unweighted UniFrac distances) in vitro” value ([2]; cocaine 100 μM vs PBS, p=0.047)?
A: significantly changed

Q: What about the “number” value ([2]; cocaine 500 μM vs PBS) of the same compound?
A: 15
